According to article PMC10840709 (Cell chemical biology, 2023):

Legend:
CSNK2A2 = CSNK2A2 (Homo sapiens, UniProt P19784); assay: HotSpot […]-ATP kinase assay; format: biochemical
BRAF V600E = BRAF V600E (Homo sapiens, UniProt P15056, V600E); assay: NanoBRET target engagement in HEK293 cells; format: cell-based
BRAF = BRAF (Homo sapiens, UniProt P15056); assay: HotSpot […]-ATP kinase assay; format: biochemical
Chain of BRAF (P15056 2-766): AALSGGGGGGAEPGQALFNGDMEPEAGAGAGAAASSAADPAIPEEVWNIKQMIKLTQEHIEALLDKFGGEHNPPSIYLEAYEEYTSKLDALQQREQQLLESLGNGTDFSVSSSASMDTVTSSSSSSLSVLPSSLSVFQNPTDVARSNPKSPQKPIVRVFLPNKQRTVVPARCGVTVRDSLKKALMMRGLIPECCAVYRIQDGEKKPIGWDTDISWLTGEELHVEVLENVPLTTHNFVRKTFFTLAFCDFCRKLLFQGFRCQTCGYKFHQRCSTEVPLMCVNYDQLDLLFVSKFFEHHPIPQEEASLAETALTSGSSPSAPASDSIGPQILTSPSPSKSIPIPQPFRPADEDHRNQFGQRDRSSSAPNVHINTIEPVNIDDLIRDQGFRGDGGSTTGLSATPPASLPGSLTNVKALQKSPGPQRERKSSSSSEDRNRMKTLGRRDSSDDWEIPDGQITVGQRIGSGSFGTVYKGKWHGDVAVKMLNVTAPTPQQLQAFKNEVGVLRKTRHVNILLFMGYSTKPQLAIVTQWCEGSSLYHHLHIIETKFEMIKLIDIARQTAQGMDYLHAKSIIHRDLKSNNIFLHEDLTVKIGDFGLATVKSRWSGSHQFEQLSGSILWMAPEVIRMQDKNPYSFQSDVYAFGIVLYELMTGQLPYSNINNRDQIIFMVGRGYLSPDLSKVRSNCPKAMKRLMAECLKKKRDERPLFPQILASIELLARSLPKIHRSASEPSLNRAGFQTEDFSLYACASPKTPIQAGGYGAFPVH

Chain of CSNK2A2 (P19784 whole entry): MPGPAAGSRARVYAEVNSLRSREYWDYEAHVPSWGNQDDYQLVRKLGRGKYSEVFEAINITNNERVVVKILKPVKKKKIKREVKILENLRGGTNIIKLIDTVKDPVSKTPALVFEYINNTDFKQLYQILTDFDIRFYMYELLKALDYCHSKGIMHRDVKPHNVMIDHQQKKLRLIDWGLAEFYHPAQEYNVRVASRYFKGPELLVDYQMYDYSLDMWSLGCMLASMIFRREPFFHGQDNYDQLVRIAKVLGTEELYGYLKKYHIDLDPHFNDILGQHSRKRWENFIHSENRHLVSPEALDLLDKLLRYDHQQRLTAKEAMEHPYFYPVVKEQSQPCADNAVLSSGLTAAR
Chain of BRAF V600E (P15056 2-766 V600E): as the sequence (P15056 2-766) above, with V599E counted along it

Compound | IC50 (CSNK2A2) [nM] | IC50 (BRAF V600E) [nM] | IC50 (BRAF) [nM]
CCN1CCN(Cc2ccc(Nc3ncc(F)c(-c4cc(F)c5nc(C)n(C(C)C)c5c4)n3)nc2)CC1 [abemaciclib] | 36.4 |  | 
Cc1ccc(NC(=O)c2ccc(CN3CC[C@H](N(C)C)C3)c(C(F)(F)F)c2)cc1Nc1nccc(-c2cncnc2)n1 [bafetinib] |  | 217 | 41.6
